Measurements taken from patent US4599351A (priority 1984, dated 1986).
In brackets after ≈: the same amount, converted by molar mass. Several values for one entry are separate records, joined by “and”; a condition that tells them apart may be missing. Identical values can stand only once.

Key:
[1] = system: Phytophthora infestans; test: whole plant or invertebrate; type: in vivo
[2] = system: Plasmopara viticola; test: whole plant or invertebrate; type: in vivo
[3] = system: Pythium ultimum Sensitive (Naturally Occurring); test: Fungitoxicity in V-8 juice agar, sensitive Pythium ultimum (Example 7); type: cell-based; settings: for IC50: Globisporangium ultimum, V-8 juice agar, read-out: ED50, Pythium ultimum Sensitive (Naturally Occurring)
[4] = system: Pythium vexans Sensitive (Naturally Occurring); test: Fungitoxicity in V-8 juice agar, sensitive Pythium vexans (Example 7); type: cell-based; settings: for IC50: Phytopythium vexans, V-8 juice agar, read-out: ED50, Pythium vexans Sensitive (Naturally Occurring)
[5] = system: Pythium vexans Resistant; test: microbe, parasite or virus in culture; type: cell-based; settings: for ED50 Ratio R/S, Pythium vexans: ED50-resistant to ED50-sensitive; for IC50: Phytopythium vexans, read-out: ED50, Pythium vexans Resistant; for ED50 against resistant fungi (in words): resistant mutant strains of Pythium ultimum or Pythium vexans, agar studies
[6] = system: Pythium ultimum Resistant; test: microbe, parasite or virus in culture; type: cell-based; settings: for ED50 Ratio R/S, Pythium ultimum: ED50-resistant to ED50-sensitive; for IC50: Globisporangium ultimum, read-out: ED50, Pythium ultimum Resistant
[7] = system: Plasmopara viticola; test: Eradicant Grape Downy Mildew control (Example 4); type: in vivo
Method: Compounds of the invention were tested for the eradicant control of the Grape Downy Mildew organism Plasmopara viticola. Detached leaves of between 70 and 80 mm diameter of 7-week-old Vitis vinifera cultivar Emperor grape seedlings were used as hosts. The leaves were inoculated with the organism and placed in an environment chamber and incubated at 18° C.-22° C. and at about 100% relative humidity for 1 to 2 days. The leaves were then sprayed with a solution of the test compound in acetone, water and a small amount of a nonionic emulsifier. The sprayed leaves were then maintained at 18° C.-22° C. and at about 100% relative humidity. Seven to nine days after inoculation, the amount of disease control was determined. The percent disease control provided by the compound of Example 1 was based on the percent disease reduction relative to nontreated check plants.

[8] = Phytophthora infestans, in Solanum lycopersicum, read-out: Fungicidal Efficacy, TLB (percent disease control)
[9] = Plasmopara viticola, in Vitis vinifera, read-out: Fungicidal Efficacy, GDM (percent disease control)
[10] = Table II Test 4, 16 ppm, infection in check plants 63%
[11] = Table II Test 4, 40 ppm, infection in check plants 63%
[12] = Table II Test 4, 100 ppm, infection in check plants 63%
[13] = Table II Test 4, 250 ppm, infection in check plants 63%
[14] = Table II Test 5, 6.4 ppm, infection in check plants 60%
[15] = Table II Test 5, 16 ppm, infection in check plants 60%
[16] = Table II Test 5, 40 ppm, infection in check plants 60%

SMILES	pest or weed control at 250 ppm [1, 8] [%]	pest or weed control at 250 ppm [2, 9] [%]	IC50 [3] [µg/mL]	IC50 [4] [µg/mL]	ED50 Ratio R/S, Pythium vexans [5]	IC50 [5] [µg/mL]	ED50 Ratio R/S, Pythium ultimum [6]	IC50 [6] [µg/mL]	further results
Cc1cccc(C)c1N(C(=O)C(C)C)C1CCOC1=O (stereo not shown) [CH(CH3)2]	23	0							
CCCC(=O)N(c1c(C)cccc1C)C1CCSC1=O (stereo not shown) [CH2 CH2 CH3, Y = S, Z = O, 3-(N-butyryl-2,6-dimethylanilino)-butyrothiolactone]	35	99							
CC(=O)N(c1c(C)cccc1C)C1CCOC1=O (stereo not shown) [CH3]									pest or weed control at 100 ppm [1, 8]: 79%; pest or weed control at 100 ppm [2, 9]: 42%
CCC(=O)N(c1c(C)cccc1C)C1CCOC1=O (stereo not shown) [C2 H5]	23		0.26 (≈ 0.995 µM)	> 1	< 140	140 (≈ 536 µM)	808	210 (≈ 804 µM)	ED50 relative to the R^1 is propyl compound, P. ultimum (sensitive) ([3]; comparison in words): more than ten times; ED50 relative to the R^1 is butyl compound, P. vexans (sensitive) ([4]; comparison in words): more than ten times; ED50 relative to the R^1 is propyl compound, P. vexans (sensitive) ([4]; comparison in words): more than two times; Percent Control of TLB [1, 10]: 0%; Percent Control of TLB [1, 11]: 0%; Percent Control of TLB [1, 12]: 54%; Percent Control of TLB [1, 13]: 80%; ED50 R/S ratio (in words) ([5]; Table III): very good; ED50 relative to the R^1 is butyl compound, P. vexans (resistant) ([5]; comparison in words): more than three times that of the R^1 is butyl compound; ED50 relative to the R^1 is propyl compound, P. vexans (resistant) ([5]; comparison in words): more than three times that of the R^1 is propyl compound; ED50 relative to the R^1 is propyl compound, P. ultimum (resistant) ([6]; comparison in words): more than twice the ED50 for the R^1 is propyl compound
Cc1cccc(C)c1N(C(=O)CC(C)C)C1CCOC1=O (stereo not shown) [CH2 CH(CH3)2]	0	96							
CCCC(=O)N(c1c(C)cccc1C)C1CCOC1=O (stereo not shown) [Example 1, 3-(N-butyryl-N-2,6-dimethylphenylamino)-gamma-butyrolactone]	99	100	0.02 (≈ 0.0726 µM)	0.43 (≈ 1.56 µM)	100	43 (≈ 156 µM)	4,750	95 (≈ 345 µM)	Percent Control of TLB [1, 10]: 0%; Percent Control of TLB [1, 11]: 48%; Percent Control of TLB [1, 12]: 76%; Percent Control of TLB [1, 13]: 94%; percent disease control (eradicant) ([7]; 40 ppm): 100%; percent disease control (eradicant) ([7]; 100 ppm): 100%; percent disease control (eradicant) ([7]; 250 ppm): 100%; fungicidal activity toward Grape Downy Mildew (in words) ([2]; in vivo): unexpectedly high fungicidal activity toward Grape Downy Mildew; ED50 against resistant fungi (in words) [5]: substantially better ED50's against resistant fungi than the compounds where R^1 has less than 3 carbon atoms
CCCCC(=O)N(c1c(C)cccc1C)C1CCOC1=O (stereo not shown) [3-(N-valeryl-N-2,6-dimethylphenylamino)-gamma-butyrolactone]	96	100		0.1 (≈ 0.346 µM)	400	40 (≈ 138 µM)			Percent Control of TLB [1, 14]: 8%; Percent Control of TLB [1, 15]: 28%; Percent Control of TLB [1, 16]: 42%; percent disease control (eradicant) ([7]; 40 ppm): 92%; percent disease control (eradicant) ([7]; 100 ppm): 100%; Percent Control of GDM ([2]; in vivo): 100% and 60% and 54%; fungicidal activity toward Grape Downy Mildew (in words) ([2]; in vivo): unexpectedly high fungicidal activity toward Grape Downy Mildew; ED50 against resistant fungi (in words) [5]: substantially better ED50's against resistant fungi than the compounds where R^1 has less than 3 carbon atoms
COCC(=O)N(c1c(C)cccc1C)C(C)C(=O)OC (stereo not shown) [CONTROL, N-methoxyacetyl-N-(1-methoxycarbonylethyl)-2,6-dimethylaniline, reference compound]			0.036 (≈ 0.129 µM)	0.075 (≈ 0.268 µM)	8,467	635 (≈ 2270 µM)	26,000	940 (≈ 3370 µM)	
Cc1cccc(C)c1N(C(=O)CCl)C1CCOC1=O (stereo not shown) [CH2 Cl, reference compound]			0.005 (≈ 0.0177 µM)	0.19 (≈ 0.674 µM)	763	145 (≈ 515 µM)	24,000	120 (≈ 426 µM)	
Cc1cccc(C)c1N(C(=O)C(C)(C)C)C1CCOC1=O (stereo not shown) [C(CH3)3]	0								
CCCCCC(=O)N(c1c(C)cccc1C)C1CCOC1=O (stereo not shown) [(CH2)4 CH3]	91	100		0.56 (≈ 1.85 µM)	29	16 (≈ 52.7 µM)			Percent Control of TLB [1, 14]: 7%; Percent Control of TLB [1, 15]: 3%; Percent Control of TLB [1, 16]: 37%; base ED50 relative to Grape Downy Mildew producing fungi (natural), versus R^1 is propyl or butyl compounds ([2]; in vivo): four to ten times higher than the R^1 is propyl or butyl compounds; ED50 R/S ratio (in words) ([5]; Table III): excellent; effect of acquired Control resistance on fungitoxicity (in words) ([5]; Table III, resistant mutants of Pythium ultimum and/or Pythium vexans): substantially less affected by the acquired Control resistance than any of the compounds in Table III; ED50 against resistant fungi (in words) [5]: excellent
COCC(=O)N(c1c(C)cccc1C)C1CCOC1=O (stereo not shown) [CH2 OCH3, reference compound]			0.005 (≈ 0.018 µM)	0.15 (≈ 0.541 µM)		400 (≈ 1440 µM)	160,000	800 (≈ 2880 µM)	
CCCC(=S)N(c1c(C)cccc1C)C1CCOC1=O (stereo not shown) [CH2 CH2 CH3, Y = O, Z = S]	96	100							
